# Source: patent US5597798A, “Taxol and epidermal growth factor used to enhance treatment of ovarian cancer” (The Regents of the University of California, priority 1994, dated 1997)
# pIC50: −log10 of the molar value. Where two headings read alike, the source gives them in different places.
# Legend:
# [1] = tested on: 2008 human ovarian carcinoma cells; assay: Colony forming assay, effect of EGF on sensitivity to cytotoxic agents; format: cell-based
# 2008 tumor xenografts = assay: Effect of EGF on cisplatin toxicity against tumor xenografts in athymic mice; format: in vivo, athymic mice (nu/nu)
# Method: For these studies, 3 to 4 week old female athymic mice (nu/nu) from BALB/c origin were used which were supplied by Harlan Sprague Dawley, Inc. (Indianapolis, Ind.). The mice were kept in a laminar flow hood at 28° C. and fed standard mouse diet and water ad libitum.
# Tumor xenografts were established from 2008 cells by harvesting confluent cell cultures by trypsinization and resuspending the cells in RPMI 1640 medium at 2.5×10^7 cells per ml. From this suspension, 0.2 ml aliquots containing 5×10^6 cells were injected s.c. on each shoulder of the athymic mice. In each mouse, two tumors were followed and tumor volumes were determined using the formula (length×width^2)/2 (Giavazzi et al., Cancer Res. 46:1928 (1986) and Tomayko & Reynolds Cancer Chemother. Pharmacol. 24:148 (1989)).
# In all groups, treatment was administered 24 hours after the inoculation with tumor cells.
# Tumor growth of each tumor in each animal was expressed as plot of in(tumor volume) as a function of time. The regression line of the in(tumor volume) versus time plot was calculated by using the method of least squares. The intercept and slope were obtained and used to calculate the time each tumor required to reach an arbitrarily defined volume of 1 ml. This volume was chosen because most tumors in all treatment groups reached this endpoint. For comparisons between two groups the unpaired Student's T-test was used. […]
smiles,measurement,setting,value
N.N.[Cl][Pt][Cl] [cisplatin],effect of EGF on sensitivity of 2008 cells to the agent (in words),[1]; EGF and the cytotoxic agent concurrently for 1 h,significant increase in sensitivity
same,Dose modifying factor,"[1]; Table 3, ratio of IC50 in control and EGF-treated cells",2.7
same,pIC50,"[1]; read-out: IC50 in absence of EGF, Table 3, cisplatin 1 h, no EGF",5.61
same,pIC50,"[1]; read-out: IC50 in absence of EGF, cytotoxic agent for 1 h, no EGF",5.55
same,pIC50,"[1]; read-out: IC50 in presence of EGF, EGF and the cytotoxic agent concurrently for 1 h",6.05
same,pIC50,"[1]; read-out: IC50 in presence of EGF, Table 3, 10 nM EGF and cisplatin concurrently for 1 h",6.04
same,final tumor volume,"2008 tumor xenografts; 1 mg/kg EGF s.c. and/or 15 mg/kg cisplatin i.p., 24 hours after inoculation",significantly reduced relative to control tumors
same,additional time required for tumors to reach a volume of 1 ml vs control tumors,2008 tumor xenografts; 15 mg/kg cisplatin i.p.,6 days
